# Assay results as given in patent US20240228488A1 (TAKEDA PHARMACEUTICAL COMPANY LIMITED, priority 2021, published 2024).
# pEC50: −log10 of the molar value.
# Assays:
# plasma kallikrein = biological target: T1, plasma kallikrein (Homo sapiens, UniProt P03952); assay: Neat human plasma assay, FXIIa contact pathway-activated, PFR-AMC substrate; type: biochemical; conditions: citrated human plasma 78% final, 10 nM human FXIIa, 100 μM PFR-AMC; read-out: Human Plasma Assay: IC90
# T1 construct: from tissue
# Outline: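 Citrated human plasma (78% final) with compound, contact-activated by 10 nM human FXIIa in pKal buffer pH 7.5, with 100 μM PFR-AMC. Fluorescence (360/480 nm) followed 5 min at room temperature; rates versus concentration fitted by 4-parameter equation for IC50/IC90.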
# [1] = biological target: human activated kallikrein enzyme (Homo sapiens, UniProt P03952); assay: Plasma kallikrein inhibition, fluorogenic PFR-AMC substrate, 500 pM activated kallikrein format; type: biochemical; conditions: 500 pM activated kallikrein, 300 uM PFR-AMC, 30 min preincubation, 10 min reaction; read-out: Primary Dose Response Assay: Average EC50
# Outline: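 Enzyme (500 pM) was preincubated with inhibitor for 30 min at room temperature in 20 mM Tris pH 7.5, 1 mM EDTA, 150 mM NaCl, 0.1% PEG-400 and 0.1% Triton X-100. The reaction was started with 300 uM PFR-AMC, run 10 min, and fluorescence read at 460 nm (380 nm excitation). EC50 derived.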
# T1 sequence (P03952 391-638 limits assumed): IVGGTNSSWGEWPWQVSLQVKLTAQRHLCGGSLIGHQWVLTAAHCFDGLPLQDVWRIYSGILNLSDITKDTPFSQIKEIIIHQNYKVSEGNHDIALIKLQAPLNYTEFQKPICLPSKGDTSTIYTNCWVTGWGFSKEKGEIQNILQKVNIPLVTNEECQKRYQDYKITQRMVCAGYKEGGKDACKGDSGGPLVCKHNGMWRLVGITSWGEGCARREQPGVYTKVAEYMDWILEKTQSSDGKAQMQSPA
# T1 sequence (P03952 20-390 partner limits assumed): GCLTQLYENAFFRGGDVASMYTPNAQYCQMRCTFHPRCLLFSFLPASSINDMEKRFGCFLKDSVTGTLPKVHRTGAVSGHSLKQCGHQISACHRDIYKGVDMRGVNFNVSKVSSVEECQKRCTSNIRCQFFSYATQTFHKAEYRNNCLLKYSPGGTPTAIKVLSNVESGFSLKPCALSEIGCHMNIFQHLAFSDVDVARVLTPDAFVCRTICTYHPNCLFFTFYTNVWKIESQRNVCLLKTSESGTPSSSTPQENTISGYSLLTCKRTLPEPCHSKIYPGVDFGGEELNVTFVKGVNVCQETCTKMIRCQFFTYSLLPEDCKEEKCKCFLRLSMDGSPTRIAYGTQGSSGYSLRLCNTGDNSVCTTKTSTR
# Chain of human activated kallikrein enzyme (P03952 391-638 limits assumed): as the sequence (P03952 391-638 limits assumed) above
# Chain of human activated kallikrein enzyme (P03952 20-390 partner limits assumed): as the sequence (P03952 20-390 partner limits assumed) above
SMILES,IC90 (plasma kallikrein),pEC50 [1]
"Cc1ccnc([C@H]2C[C@@H]2C(=O)Nc2cc(NC(C)c3cn4cc(C5CC5)cc(N5CC(=O)N(CCO)C5=O)c4n3)nc(C3CC3)n2)n1 (stereo partly drawn) [Example 460, (1S,2S)—N-(2-cyclopropyl-6-((1-(6-cyclopropyl-8-(3-(2-hydroxyethyl)-2,4-dioxoimidazolidin-1-yl)imidazo[1,2-a]pyridin-2-yl)ethyl)amino)pyrimidin-4-yl)-2-(4-methylpyrimidin-2-yl)cyclopropane-1-carboxamide]",1500 to 10000 nM,8.00 to 9.00
"CN1CC(F)(c2cc(C3CC3)cn3cc(CNc4cc(NC(=O)[C@H]5C[C@@H]5c5cccc(Cl)c5)ncn4)nc23)C1 [Example 402, (1S,2S)-2-(3-chlorophenyl)-N-(6-(((6-cyclopropyl-8-(3-fluoro-1-methylazetidin-3-yl)imidazo[1,2-a]pyridin-2-yl)methyl)amino)pyrimidin-4-yl)cyclopropane-1-carboxamide]",400 to 1500 nM,> 9.00
"COCc1nc(NC(=O)[C@H]2C[C@@H]2c2nccc(C)n2)cc(OCc2cn3cc(C4CC4)cc(N4CC(=O)N(C)C4=O)c3n2)n1 [Example 551, (1S,2S)-N-(6-((6-cyclopropyl-8-(3-methyl-2,4-dioxoimidazolidin-1-yl)imidazo[1,2-a]pyridin-2-yl)methoxy)-2-(methoxymethyl)pyrimidin-4-yl)-2-(4-methylpyrimidin-2-yl)cyclopropane-1-carboxamide]",400 to 1500 nM,> 9.00
"COCCOCCN1C(=O)CN(c2cc(C3CC3)cn3cc(CNc4cc(NC(=O)[C@H]5C[C@@H]5c5nccc(C)n5)ncn4)nc23)C1=O [Example 382, (1S,2S)-N-(6-(((6-cyclopropyl-8-(3-(2-(2-methoxyethoxy)ethyl)-2,4-dioxoimidazolidin-1-yl)imidazo[1,2-a]pyridin-2-yl)methyl)amino)pyrimidin-4-yl)-2-(4-methylpyrimidin-2-yl)cyclopropane-1-carboxamide]",< 400 nM,> 9.00
"Cc1ccnc([C@H]2C[C@@H]2C(=O)Nc2ncnc(NCc3cn4cc(C5CC5)cc(N5CC(=O)N(C)C5=O)c4n3)n2)n1 (racemic) [Example 623, rac-(1S*,2S*)—N-(4-(((6-cyclopropyl-8-(3-methyl-2,4-dioxoimidazolidin-1-yl)imidazo[1,2-a]pyridin-2-yl)methyl)amino)-1,3,5-triazin-2-yl)-2-(4-methylpyrimidin-2-yl)cyclo propane-1-carboxamide]",< 400 nM,> 9.00
"Cc1ccnc([C@H]2C[C@@H]2C(=O)Nc2cc(OCc3cn4cc(C5CC5)cc(N5CC(=O)N(C)C5=O)c4n3)nc(OCCN(C)C)n2)n1 [Example 563, (1S,2S)—N-(6-((6-cyclopropyl-8-(3-methyl-2,4-dioxoimidazolidin-1-yl)imidazo[1,2-a]pyridin-2-yl)methoxy)-2-(2-(dimethylamino)ethoxy)pyrimidin-4-yl)-2-(4-methylpyrimidin-2-yl)cyclopropane-1-carboxamide]",< 400 nM,> 9.00
"O=C(Nc1cc(NCc2cn3cc(C4CC4)cc(N4CCNC4=O)c3n2)ncn1)[C@H]1C[C@@H]1c1cc(Cl)ccn1 [Example 394, (1S,2S)-2-(4-chloropyridin-2-yl)-N-(6-(((6-cyclopropyl-8-(2-oxoimidazolidin-1-yl)imidazo[1,2-a]pyridin-2-yl)methyl)amino)pyrimidin-4-yl)cyclopropane-1-carboxamide]",400 to 1500 nM,> 9.00
"CN1CCC(Oc2cc(C3CC3)cn3cc(CNc4cc(NC(=O)[C@H]5C[C@@H]5c5cccc(Cl)c5)ncn4)nc23)C1=O (stereo partly drawn) [Example I-147, (1S,2S)-2-(3-chlorophenyl)-N-(6-(((6-cyclopropyl-8-((1-methyl-2-oxopyrrolidin-3-yl)oxy)imidazo[1,2-a]pyridin-2-yl)methyl)amino)pyrimidin-4-yl)cyclopropane-1-carboxamide]",1500 to 10000 nM,8.00 to 9.00
"Cc1ccnc([C@H]2C[C@@H]2C(=O)Nc2cc(N(C)Cc3cn4cc(C5CC5)cc(N5CC(=O)N(CC(C)(C)O)C5=O)c4n3)nc(C)n2)n1 [Example 359, (1S,2S)-N-(6-(((6-cyclopropyl-8-(3-(2-hydroxy-2-methylpropyl)-2,4-dioxoimidazolidin-1-yl)imidazo[1,2-a]pyridin-2-yl)methyl)(methyl)amino)-2-methylpyrimidin-4-yl)-2-(4-methylpyrimidin-2-yl)cyclopropane-1-carboxamide]",400 to 1500 nM,> 9.00
"Cc1cc(NCc2cn3cc(C4CC4)cc(N4CC(=O)N(C)C4=O)c3n2)nc(NC(=O)[C@H]2C[C@@H]2c2nccc(C)n2)n1 (racemic) [Example 519, rac-(1S*,2S*)-N-(4-(((6-cyclopropyl-8-(3-methyl-2,4-dioxoimidazolidin-1-yl)imidazo[1,2-a]pyridin-2-yl)methyl)amino)-6-methylpyrimidin-2-yl)-2-(4-methylpyrimidin-2-yl)cyclopropane-1-carboxamide]",< 400 nM,> 9.00
"N#Cc1ccc(Cl)cc1[C@H]1C[C@@H]1C(=O)Nc1cc(N2C[C@@H](O)C[C@@H]2c2cn3cc(C4CC4)ccc3n2)ncn1 (relative stereo) [Example 477, rac-(1S*,2S*)-2-(5-chloro-2-cyanophenyl)-N-(6-((2R,4S)-2-(6-cyclopropylimidazo[1,2-a]pyridin-2-yl)-4-hydroxypyrrolidin-1-yl)pyrimidin-4-yl)cyclopropane-1-carboxamide]",1500 to 10000 nM,8.00 to 9.00
"N#Cc1ccc(Cl)c(F)c1[C@H]1C[C@@H]1C(=O)Nc1cc(NCc2cn3cc(C4CC4)ccc3n2)ncn1 (racemic) [Example 50, rac-(1S*,2S*)-2-(3-chloro-6-cyano-2-fluorophenyl)-N-(6-(((6-cyclopropylimidazo[1,2-a]pyridin-2-yl)methyl)amino)pyrimidin-4-yl)cyclopropane-1-carboxamide]",10000 to 48000 nM,8.00 to 9.00
"CN1CCN(c2cc(C3CC3)cn3cc(CNc4cc(NC(=O)[C@H]5C[C@@H]5c5cccc(Cl)c5)nc(O)n4)nc23)CC1 [Example 285, (1S,2S)-2-(3-chlorophenyl)-N-(6-(((6-cyclopropyl-8-(4-methylpiperazin-1-yl)imidazo[1,2-a]pyridin-2-yl)methyl)amino)-2-hydroxypyrimidin-4-yl)cyclopropane-1-carboxamide]",< 400 nM,> 9.00
"CN1CCN(c2cc(C3CC3)cn3cc(CNc4ccnc(NC(=O)[C@@H]5C[C@H]5c5cc(Cl)ccc5C#N)c4)nc23)CC1 (racemic) [Example 143, rac-(1S*,2S*)-2-(5-chloro-2-cyanophenyl)-N-(4-(((6-cyclopropyl-8-(4-methylpiperazin-1-yl)imidazo[1,2-a]pyridin-2-yl)methyl)amino)pyridin-2-yl)cyclopropane-1-carboxamide]",400 to 1500 nM,> 9.00
"O=C(Nc1cc(NCc2cn3cc(C4CC4)cc(C4(O)CNC4)c3n2)ccn1)[C@H]1C[C@@H]1c1cccc(Cl)c1 [Example 134, (1S,2S)-2-(3-chlorophenyl)-N-(4-(((6-cyclopropyl-8-(3-hydroxyazetidin-3-yl)imidazo[1,2-a]pyridin-2-yl)methyl)amino)pyridin-2-yl)cyclopropane-1-carboxamide]",< 400 nM,> 9.00
"Cc1ccnc([C@H]2C[C@@H]2C(=O)Nc2cc(N[C@H](C)c3cn4cc(C5CC5)cc(N5CC6(COC6)CC5=O)c4n3)nc(C)n2)n1 [Example I-27, (1S,2S)—N-(6-(((R)-1-(6-cyclopropyl-8-(7-oxo-2-oxa-6-azaspiro[3.4]octan-6-yl)imidazo[1,2-a]pyridin-2-yl)ethyl)amino)-2-methylpyrimidin-4-yl)-2-(4-methylpyrimidin-2-yl)cyclopropane-1-carboxamide]",< 400 nM,> 9.00
"Cc1ccnc([C@H]2C[C@@H]2C(=O)Nc2cncc(NCc3cn4cc(C5CC5)cc(N5CC(=O)N(C)C5=O)c4n3)n2)n1 (racemic) [Example 526, rac-(1S*,2S*)-N-(6-(((6-cyclopropyl-8-(3-methyl-2,4-dioxoimidazolidin-1-yl)imidazo[1,2-a]pyridin-2-yl)methyl)amino)pyrazin-2-yl)-2-(4-methylpyrimidin-2-yl)cyclopropane-1-carboxamide]",400 to 1500 nM,> 9.00
"N#Cc1cc(C2CC2)cn2cc(CNc3cc(NC(=O)[C@H]4C[C@@H]4c4cccc(Cl)c4)ncn3)nc12 (racemic) [Example 71, rac-(1S*,2S*)-2-(3-chlorophenyl)-N-(6-(((8-cyano-6-cyclopropylimidazo[1,2-a]pyridin-2-yl)methyl)amino)pyrimidin-4-yl)cyclopropane-1-carboxamide]",10000 to 48000 nM,8.00 to 9.00
"CN1CCN(c2cc(C3CC3)cn3cc(CNc4cc(NC(=O)[C@H]5C[C@@H]5c5cccc(Cl)c5)ncn4)nc23)C1=O [Example I-157, (1S,2S)-2-(3-chlorophenyl)-N-(6-(((6-cyclopropyl-8-(3-methyl-2-oxoimidazolidin-1-yl)imidazo[1,2-a]pyridin-2-yl)methyl)amino)pyrimidin-4-yl)cyclopropane-1-carboxamide]",1500 to 10000 nM,> 9.00
"CC(C)(O)c1cc(C2CC2)cn2cc(CNc3cc(NC(=O)[C@H]4C[C@@H]4c4cccc(Cl)c4)ncn3)nc12 [Example I-159, (1S,2S)-2-(3-chlorophenyl)-N-(6-(((6-cyclopropyl-8-(2-hydroxypropan-2-yl)imidazo[1,2-a]pyridin-2-yl)methyl)amino)pyrimidin-4-yl)cyclopropane-1-carboxamide]",10000 to 48000 nM,8.00 to 9.00
